Source: EP1680415B1, “PYRROLIDINYL UREA DERIVATIVES AS ANGIOGENESIS INHIBITORS” (ABBOTT LABORATORIES, priority 2003, dated 2005)

What follows are compounds tested on HMVEC (assay: human microvascular endothelial (HMVEC) migration assay). Conditions: Homo sapiens; Inhibition of HMVEC migration; 0.01 nM; activators 15 ng/mL bFGF/VEGF; 4 hours at 37 °C; compared to a positive control.
Assay type: cell-based
Protocol: The human microvascular endothelial (HMVEC) migration assay was run according to the procedure of S. S. Tolsma, O. V. Volpert, D. J. Good, W. F. Frazier, P. J. Polverini and N. Bouck, J. Cell Biol. 122, 497-511 (1993).
The HMVEC migration assay was carried out using Human Microvascular Endothelial Cells-Dermal (single donor) and Human Microvascular Endothelial Cells, (neonatal). The BCE or HMVEC cells were starved overnight in DME containing 0.01% bovine serum albumin (BSA). Cells were then harvested with trypsin and resuspended in DME with 0.01 % BSA at a concentration of 1.5 X 10^6 cells per mL. Cells were added to the bottom of a 48 well modified Boyden chamber (Nucleopore Corporation, Cabin John, MD). The chamber was assembled and inverted, and cells were allowed to attach for 2 hours at 37 °C to polycarbonate chemotaxis membranes (5 µm pore size) that had been soaked in 0.01 % gelatin overnight and dried. The chamber was then reinverted, and test substances (total volume of 50 µL), including activators, 15 ng/mL bFGF/VEGF, were added to the wells of the upper chamber. The apparatus was incubated for 4 hours at 37 °C. Membranes were recovered, fixed and stained (Diff Quick, Fisher Scientific) and the number of cells that had migrated to the upper chamber per 3 high power fields counted. Background migration to DME + […] was subtracted and the data reported as the number of cells migrated per 10 high power fields (400X) or, when results from multiple experiments were combined, as the percent inhibition of migration compared to a positive control.

**Q.** How did the inhibition at 10 pM turn out when CCOC(=O)CN1CCN(C(=O)N[C@@H]2CCN(C(=O)c3ccc(C)nc3)C2)CC1 [Example 95, ethyl {4-[({(3R)-1-[(6-methylpyridin-3-yl)carbonyl]pyrrolidin-3-yl}amino)carbonyl]piperazin-1-yl} acetate] was run?
**A.** The inhibition at 10 pM was 62%.

**Q.** Which inhibition at 10 pM does the source give for Cc1ccc(C(=O)N2CC[C@@H](NC(=O)N3CCN(c4ccc(F)cc4)CC3)C2)cn1 [Example 92, 4-(4-fluorophenyl)-N-{(3R)-1-[(6-methylpyidin-3-yl)carbonyl]pyrrolidin-3-yl}piperazine-1-carboxamide] here?
**A.** Its inhibition at 10 pM is 67%.

Same assay, conditions: Homo sapiens; Inhibition of HMVEC migration; 0.1 nM; activators 15 ng/mL bFGF/VEGF; 4 hours at 37 °C; compared to a positive control

**Q.** Which inhibition at 0.0001 µM does the source give for CSCCCNC(=O)N[C@@H]1CCN(C(=O)c2ccc(C)nc2Cl)C1 [Example 41, N-{(3R)-1-[(2-chloro-6-methylpyridin-3-yl)carbonyl]pyrrolidin-3-yl}-N'-[3-(methylthio)propyl]urea] here?
**A.** Its inhibition at 0.0001 µM is 87%.

**Q.** Which inhibition at 0.0001 µM does the source give for Cc1ccc(C(=O)N2CC[C@@H](NC(=O)NCC#N)C2)cn1 [Example 15, N-(cyanomethyl)-N'-{(3R)-1-[(6-methyl-3-pyridinyl)carbonyl]-3-pyrrolidinyl}urea] here?
**A.** The inhibition at 0.0001 µM was 64%.

**Q.** With CCOCCNC(=O)N[C@@H]1CCN(C(=O)c2ccc(C)nc2)C1 [Example 13, N-(2-ethoxyethyl)-N'-{(3R)-1-[(6-methyl-3-pyridinyl)carbonyl]-3-pyrrolidinyl}urea] as the compound, how does the inhibition at 0.0001 µM read?
**A.** The inhibition at 0.0001 µM was 83%.

**Q.** CCCN(CC)C(=O)N[C@@H]1CCN(C(=O)c2ccc(C)nc2)C1 [Example 63, N-ethyl-N'-{(3R)-1-[(6-methylpyridin-3-yl)carbonyl]pyrrolidin-3-yl}-N-propylurea] was tested. Which inhibition at 0.0001 µM did it give?
**A.** Its inhibition at 0.0001 µM is 72%.

**Q.** How did the inhibition at 0.0001 µM turn out when Cc1ccc(C(=O)N2CC[C@@H](NC(=O)N3CC4(C)CC3CC(C)(C)C4)C2)cn1 (stereo partly drawn) [Example 74, 1,3,3-trimethyl-N-{(3R)-1-[(6-methylpyridin-3-yl)carbonyl]pyrrolidin-3-yl}-6-azabicyclo[3.2.1]octane-6-carboxamide] was run?
**A.** The inhibition at 0.0001 µM was 68%.

**Q.** Cc1ccc(C(=O)N2CC[C@@H](NC(=O)NCC(C)(C)C)C2)cn1 [Example 9, N-{(3R)-1-[(6-methyl-3-pyridinyl)carbonyl]-3-pyrrolidinyl}-N'-neopentylurea] was tested. Which inhibition at 0.0001 µM did it give?
**A.** The inhibition at 0.0001 µM was 71%.

**Q.** CCCC1CCN(C(=O)N[C@@H]2CCN(C(=O)c3ccc(C)nc3)C2)CC1 [Example 69, N-{(3R)-1-[(6-methylpyridin-3-yl)carbonyl]pyrrolidin-3-yl} -4-propylpiperidine-1-carboxamide] was tested. Which inhibition at 0.0001 µM did it give?
**A.** The inhibition at 0.0001 µM was 87%.

**Q.** With C#CCNC(=O)N[C@@H]1CCN(C(=O)c2ccc(C)nc2)C1 [Example 16, N-{(3R)-1-[(6-methyl-3-pyridinyl)carbonyl]-3-pyrrolidinyl}-N'-2-propynylurea] as the compound, how does the inhibition at 0.0001 µM read?
**A.** Its inhibition at 0.0001 µM is 72%.

**Q.** Cc1ccc(C(=O)N2CC[C@@H](NC(=O)N[C@@H](CO)CC(C)C)C2)cn1 [Example 24, N-[(1R)-1-(hydroxymethyl)-3-methylbutyl]-N'-{(3R)-1-[(6-methyl-3-pyridinyl)carbonyl]-3-pyrrolidinyl}urea] was tested. Which inhibition at 0.0001 µM did it give?
**A.** The inhibition at 0.0001 µM was 70%.

**Q.** For COc1ccc2[nH]cc(CCNC(=O)N[C@@H]3CCN(C(=O)c4ccc(C)nc4)C3)c2c1 [Example 29, N-[2-(5-methoxy-1H-indol-3-yl)ethyl]-N'-{(3R)-1-[(6-methyl-3-pyridinyl)carbonyl]-3-pyrrolidinyl}urea], which inhibition at 0.0001 µM is on record?
**A.** Its inhibition at 0.0001 µM is 92%.

**Q.** With C#CCN(C)C(=O)N[C@@H]1CCN(C(=O)c2ccc(C)nc2)C1 [Example 62, N-methyl-N'-{(3R)-1-[(6-methylpyridin-3-yl)carbonyl]pyrrolidin-3-yl}-N-prop-2-ynylurea] as the compound, how does the inhibition at 0.0001 µM read?
**A.** The inhibition at 0.0001 µM was 54%.

**Q.** COCCN(C(=O)N[C@@H]1CCN(C(=O)c2ccc(C)nc2Cl)C1)C(C)C [Example 35, N'-{(3R)-1-[(2-chloro-6-methylpyridin-3-yl)carbonyl]pyrrolidin-3-yl}-N-isopropyl-N-(2-methoxyethyl)urea] was tested. Which inhibition at 0.0001 µM did it give?
**A.** The inhibition at 0.0001 µM was 70%.

**Q.** With Cc1ccc(C(=O)N2CC[C@@H](NC(=O)NCCCN3CCOCC3)C2)cn1 [Example 3, N-{(3R)-1-[(6-methyl-3-pyridinyl)carbonyl]-3-pyrrolidinyl}-N'-[3-(4-morpholinyl)propyl]urea] as the compound, how does the inhibition at 0.0001 µM read?
**A.** The inhibition at 0.0001 µM was 60%.

**Q.** Which inhibition at 0.0001 µM does the source give for Cc1ccc(C(=O)N2CC[C@@H](NC(=O)NCCC(C)(C)C)C2)cn1 [Example 10, N-(3,3-dimethylbutyl)-N'-{(3R)-1-[(6-methyl-3-pyridinyl)carbonyl]-3-pyrrolidinyl}urea] here?
**A.** Its inhibition at 0.0001 µM is 65%.

**Q.** Which inhibition at 0.0001 µM does the source give for Cc1ccc(C(=O)N2CC[C@@H](NC(=O)N3CCC4(CC3)OCCO4)C2)cn1 [Example 87, N-{(3R)-1-[(6-methylpyridin-3-yl)carbonyl]pyrrolidin-3-yl}-1,4-dioxa-8-azaspiro[4.5]decane-8-carboxamide] here?
**A.** Its inhibition at 0.0001 µM is 55%.

**Q.** CCCCN(CCCC)C(=O)N[C@@H]1CCN(C(=O)c2ccc(C)nc2)C1 [Example 66, N,N-dibutyl-N'-{(3R)-1-[(6-methylpyridin-3-yl)carbonyl]pyrrolidin-3-yl} urea] was tested. Which inhibition at 0.0001 µM did it give?
**A.** The inhibition at 0.0001 µM was 84%.

**Q.** How did the inhibition at 0.0001 µM turn out when Cc1ccc(C(=O)N2CC[C@@H](NC(=O)NCC(F)(F)F)C2)cn1 [Example 11, N-{(3R)-1-[(6-methyl-3-pyridinyl)carbonyl]-3-pyrrolidinyl}-N'-(2,2,2-trifluoroethyl)urea] was run?
**A.** Its inhibition at 0.0001 µM is 81%.

**Q.** How did the inhibition at 0.0001 µM turn out when CCN(Cc1ccccc1)C(=O)N[C@@H]1CCN(C(=O)c2ccc(C)nc2)C1 [Example 50, N-benzyl-N-ethyl-N'-{(3R)-1-[(6-methylpyridin-3-yl)carbonyl]pyrrolidin-3-yl} urea] was run?
**A.** The inhibition at 0.0001 µM was 76%.

**Q.** How did the inhibition at 0.0001 µM turn out when CCN(CCOC)C(=O)N[C@@H]1CCN(C(=O)c2ccc(C)nc2)C1 [Example 71, N-ethyl-N-(2-methoxyethyl)-N'-{(3R)-1-[(6-methylpyridin-3-yl)carbonyl]pyrrolidin-3-yl}urea] was run?
**A.** The inhibition at 0.0001 µM was 53%.

**Q.** With CCN(CC)CCN(C)C(=O)N[C@@H]1CCN(C(=O)c2ccc(C)nc2)C1 [Example 49, N-[2-(diethylamino)ethyl]-N-methyl-N'-{(3R)-1-[(6-methylpyridin-3-yl)carbonyl]pyrrolidin-3-yl}urea] as the compound, how does the inhibition at 0.0001 µM read?
**A.** Its inhibition at 0.0001 µM is 65%.

**Q.** How did the inhibition at 0.0001 µM turn out when Cc1ccc(C(=O)N2CC[C@@H](NC(=O)N[C@H](CO)c3ccccc3)C2)cn1 [Example 25, N-[(1S)-2-hydroxy-1-phenylethyl]-N'-{(3R)-1-[(6-methyl-3-pyridinyl)carbonyl]-3-pyrrolidinyl}urea] was run?
**A.** Its inhibition at 0.0001 µM is 80%.

**Q.** Which inhibition at 0.0001 µM does the source give for Cc1ccc(C(=O)N2CC[C@@H](NC(=O)NCCC(c3ccccc3)c3ccccc3)C2)cn1 [Example 31, N-(3,3-diphenylpropyl)-N'-{(3R)-1-[(6-methyl-3-pyridinyl)carbonyl]-3-pyrrolidinyl}urea] here?
**A.** Its inhibition at 0.0001 µM is 79%.

**Q.** Which inhibition at 0.0001 µM does the source give for Cc1ccc(C(=O)N2CC[C@@H](NC(=O)N(Cc3ccccc3)Cc3ccccc3)C2)cn1 [Example 53, N,N-dibenzyl-N'-{(3R)-1-[(6-methylpyridin-3-yl)carbonyl]pyrrolidin-3-yl} urea] here?
**A.** The inhibition at 0.0001 µM was 78%.

**Q.** Which inhibition at 0.0001 µM does the source give for Cc1ccc(C(=O)N2CC[C@@H](NC(=O)N3CCC(O)CC3)C2)cn1 [Example 85, 4-hydroxy-N-{(3R)-1-[(6-methylpyridin-3-yl)carbonyl]pyrrolidin-3-yl}piperidine-1-carboxamide] here?
**A.** Its inhibition at 0.0001 µM is 55%.

**Q.** For Cc1ccc(C(=O)N2CC[C@@H](NC(=O)NCCc3c[nH]cn3)C2)cn1 [Example 4, N-[2-(1H-imidazol-4-yl)ethyl]-N'-{(3R)-1-[(6-methyl-3-pyridinyl)carbonyl]-3-pyrrolidinyl}urea], which inhibition at 0.0001 µM is on record?
**A.** Its inhibition at 0.0001 µM is 69%.

**Q.** Which inhibition at 0.0001 µM does the source give for Cc1ccc(C(=O)N2CC[C@@H](NC(=O)NC3CCCCCC3)C2)cn1 [Example 22, N-cycloheptyl-N'-{(3R)-1-[(6-methyl-3-pyridinyl)carbonyl]-3-pyrrolidinyl}urea] here?
**A.** Its inhibition at 0.0001 µM is 70%.

**Q.** Cc1ccc(C(=O)N2CC[C@@H](NC(=O)NCCCOCC(C)C)C2)c(Cl)n1 [Example 40, N-{(3R)-1-[(2-chloro-6-methylpyridin-3-yl)carbonyl]pyrrolidin-3-yl}-N'-(3-isobutoxypropyl)urea] was tested. Which inhibition at 0.0001 µM did it give?
**A.** Its inhibition at 0.0001 µM is 72%.

Same assay, conditions: Homo sapiens; Inhibition of HMVEC migration; 1 nM; activators 15 ng/mL bFGF/VEGF; 4 hours at 37 °C; compared to a positive control

**Q.** For CCCCN(Cc1ccccc1)C(=O)N[C@@H]1CCN(C(=O)c2ccc(C)nc2)C1 [Example 52, N-benzyl-N-butyl-N'-{(3R)-1-[(6-methylpyridin-3-yl)carbonyl]pyrrolidin-3-yl}urea], which inhibition at 0.001 µM is on record?
**A.** The inhibition at 0.001 µM was 80%.

**Q.** CCCCN(CCCC)C(=O)N[C@@H]1CCN(C(=O)c2ccc(C)nc2Cl)C1 [Example 34, N,N-dibutyl-N'-{(3R)-1-[(2-chloro-6-methylpyridin-3-yl)carbonyl]pyrrolidin-3-yl}urea] was tested. Which inhibition at 0.001 µM did it give?
**A.** The inhibition at 0.001 µM was 50%.

**Q.** With Cc1ccc(C(=O)N2CC[C@@H](NC(=O)N(Cc3ccccc3)C(C)C)C2)cn1 [Example 51, N-benzyl-N-isopropyl-N'-{(3R)-1-[(6-methylpyridin-3-yl)carbonyl]pyrrolidin-3-yl}urea] as the compound, how does the inhibition at 0.001 µM read?
**A.** The inhibition at 0.001 µM was 60%.
